The test system of assay [1] is Gal4DBD fusions of CLOCK and MOP4 with VP16 fusions of nuclear receptors. Briefly: Mammalian two-hybrid analysis in CV-1 cells. It is filed as cell-based, human. The following applies: ligand 1 μM, FIG. 1B. As to the method:
NIH 3T3 cells were seeded at 20,000 cells/well in a 48-well dish and transfected by FuGENE™ liposome-mediated transfer (Roche Molecular Biochemicals, Indianapolis, Ind.) with internal control pRLSV40 (5 ng), pGL3M34 reporter, CMX-MOP4 (100 ng) or CMX-CLOCK (100 ng) and CMX-BMAL1 (100 ng) in the presence or absence of CMX-RXRα or CMX-RARα (25–100 ng). CMX-MOP4ΔAAA (100 ng), pCDNA3.1MOP4Δ727 (100 ng), pCDNA3.1MOP4Δ624 (100 ng), and CMX-MOP4Δ635–645 (100 ng) were used instead of CMXMOP4 where indicated. The amount of DNA in each transfection was kept constant by addition of empty pCDNA3 vector. […] Forty-eight hours post-transfection, cells were harvested to determine luciferase activity by luminometry (Dual-Luciferase® Reporter Assay System, Promega Corporation, Madison, Wis.). The procedure for mammalian two-hybrid analysis was identical except that CV-1 cells were used. MH100TK-LUC (100 ng) reporter, CMX-Gal4DBD-MOP4 (20 ng), CMX-Gal4DBD-CLOCK (20 ng) in the presence of, CMX-VP16-PPARγ (20 ng), CMX-VP16-RARα (20 ng), CMX-VP16-TRβ (20 ng), CMX-RXRα (20 ng) or CMX-VP16-PPARα (20 ng). […] For all the figures, each value is the mean of three independent experiments +/− standard error. Each experiment included six replicates from a single assay.

The subject of assay [2] is interaction between MOP4 and CLOCK with RXRα and RARα. The following applies: YRG2 cells, ligand 1 μM, FIG. 1A. As to the method:
A liquid β-galactosidase activity assay was utilized to assess the effect of ligands on these novel interactions.
The library was prepared by ligating XhoI/EcoRI-adapted, phosphorylated, oligo-dT-primed cDNA, prepared from polyadenylated RNA extracted from 1×10^8 human aortic vascular smooth muscle cells (Cambrex Corporation, East Rutherford, N.J.), into the HybriZAP® II vector and packaged with Gigapack® III Gold packaging extract (Stratagene, La Jolla, Calif.) into a primary lambda library. […] RXRα-interacting clones were selected on media lacking tryptophan, leucine, and histidine, supplemented with 10 mM 3-amino-triazol.

A further assay has as its target T1, CLOCK and RARα (Homo sapiens, UniProt P10276).
T1 construct: made in house; host or cells: coupled in vitro transcription-translation (labelled protein); E. coli BL21(DE3) (purified protein, inferred)
T1 sequence (P10276 1-462): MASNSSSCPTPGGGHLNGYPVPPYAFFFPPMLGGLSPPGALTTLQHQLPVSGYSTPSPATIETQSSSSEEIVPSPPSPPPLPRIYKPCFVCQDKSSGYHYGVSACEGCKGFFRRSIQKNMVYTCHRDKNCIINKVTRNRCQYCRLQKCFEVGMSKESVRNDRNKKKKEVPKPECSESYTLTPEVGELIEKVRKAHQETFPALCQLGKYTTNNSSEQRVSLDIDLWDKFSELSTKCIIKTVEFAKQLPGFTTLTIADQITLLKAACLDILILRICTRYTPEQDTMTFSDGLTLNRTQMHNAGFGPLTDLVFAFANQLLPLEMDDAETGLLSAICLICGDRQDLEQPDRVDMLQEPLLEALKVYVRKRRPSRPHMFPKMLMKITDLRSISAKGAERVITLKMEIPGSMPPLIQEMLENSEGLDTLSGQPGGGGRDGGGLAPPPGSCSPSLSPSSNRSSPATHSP
T1 sequence (O15516 1-846 partner): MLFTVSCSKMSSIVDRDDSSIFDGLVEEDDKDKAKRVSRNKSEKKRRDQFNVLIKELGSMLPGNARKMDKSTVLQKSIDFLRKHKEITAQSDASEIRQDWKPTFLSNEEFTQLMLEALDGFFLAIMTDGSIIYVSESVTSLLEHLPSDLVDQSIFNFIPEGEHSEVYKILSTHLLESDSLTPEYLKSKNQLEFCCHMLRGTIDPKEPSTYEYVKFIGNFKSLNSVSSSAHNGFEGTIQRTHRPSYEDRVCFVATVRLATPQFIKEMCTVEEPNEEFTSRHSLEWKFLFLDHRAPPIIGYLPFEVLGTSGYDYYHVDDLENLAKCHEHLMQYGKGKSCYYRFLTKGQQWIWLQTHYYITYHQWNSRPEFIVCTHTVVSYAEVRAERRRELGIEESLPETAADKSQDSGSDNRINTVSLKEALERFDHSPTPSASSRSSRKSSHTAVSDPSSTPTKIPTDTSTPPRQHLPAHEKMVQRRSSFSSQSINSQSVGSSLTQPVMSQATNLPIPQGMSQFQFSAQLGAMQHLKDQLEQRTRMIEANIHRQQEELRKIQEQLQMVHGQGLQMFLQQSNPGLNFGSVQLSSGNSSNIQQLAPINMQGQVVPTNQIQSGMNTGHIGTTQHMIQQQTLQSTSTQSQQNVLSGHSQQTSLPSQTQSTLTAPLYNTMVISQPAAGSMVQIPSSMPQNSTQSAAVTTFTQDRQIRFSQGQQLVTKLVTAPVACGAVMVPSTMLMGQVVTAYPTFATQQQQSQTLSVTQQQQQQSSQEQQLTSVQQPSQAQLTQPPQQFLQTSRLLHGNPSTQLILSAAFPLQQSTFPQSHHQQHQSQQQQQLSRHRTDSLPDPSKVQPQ
The assay is described as follows: In vitro immunoprecipitation of CLOCK and RARα. The class given is binding. The following applies: in vitro translated proteins, incubation in presence of retinoic acid.

The subject of assay [3] is hPER2 transcript oscillation in VSMC. The assay is described as follows: Serum shock and ribonuclease protection analysis of hPER2 mRNA in VSMC. It is filed as cell-based, human. As to the method:
In these experiments, it was determined that oscillating clock gene expression could be induced by serum shock in VSMC as had been reported in Rat and 3T3 fibroblasts (Balsalobre, et al. (1998) Cell 93:929–937; Akashi, et al. (2000) Genes Dev. 14:645–649). Following addition of 50% serum for two hours, hPER2 mRNA peaks very rapidly at T4 (fours hours after serum shock) and enters a cyclical expression pattern, peaking at T24 and T48 (FIG. 5A). Adding tRA at T17 and leaving it in the culture for the remainder of the experiment, delayed the peak of hPER2 mRNA from T24 to T28. […] When tRA was added at T17 and removed at T19, the first hPER2 peak was again delayed to T28. However, the drop in hPER2 levels was followed by an increase, resulting in a second cycle which peaked at T52 (FIG. 5C). Thus, tRA phase delayed the hPER oscillation by four hours, which is consistent with the observation that ligand-bound RARα prevents CLOCK:BMAL1 heterodimer from activating transcription through its E-box. Removal of the ligand restored the ability of the CLOCK:BMAL1 heterodimer to induce hPER2 expression, but the phase of the cycle was delayed.
The coincidental circadian variability of catecholamines and blood pressure (Hossmann, et al. (1980) Cardiovasc. Res. 14:125–129) led to the investigation of whether catecholamines can phase-shift a core clock oscillator in VSMC. Norepinephrine and epinephrine (10 μM), were added at T16 and left in the culture until T18. This phase advanced the hPER2 mRNA peak to T20 instead of T24 (FIG. 5D).
VSMC (3500 cells/cm^2) were plated on 10 cm^2 plates 6 days before the experiment and were serum-starved for 48 hours after reaching confluence. Serum shock was carried out using 50% fetal bovine serum (Gibco, Carlsbad, Calif.) as previously described (Balsalobre, et al. (1998) Cell 93:929–937) and cells were harvested at the indicated time points and stored at −80° C. Total RNA was extracted from each sample using the RNAwiz™ reagent (Ambion, Austin, Tex.). […] RNA (5 μg) from each time point was hybridized for 16 hour with 8×10^4 cpm of the probe at 42° C. and digested with RNaseA/T1 (SequaGel System, National Diagnostics, Atlanta, Ga.), dried and analyzed by a PhosphorImager. The data was quantitated using ImageQuant version 1.2 software (Amersham Pharmacia Molecular Dynamics, Piscataway, N.J.) All results represent a mean of at least two independent experiments and are expressed as the ratio of the MOP4 or PER2 signal divided by the Actin signal at the same time point.

The structures appear in SMILES notation.

Method for CLOCK and RARα: [^35S]Methionine-labeled RARα and CLOCK were incubated with purified CLOCK and RARα protein, respectively for 30 min. at room temperature in the presence or absence of tRA. The complex was immunoprecipitated using anti-CLOCK and anti-RAR antibodies (Santa Cruz Biotechnology, Inc., Santa Cruz, Calif.) and protein A-agarose (Gibco, Carlsbad, Calif.) was added. Beads were washed extensively and bound proteins separated by SDS-PAGE and analyzed by a PhosphorImager.

For the compound `CC1=C(/C=C/C(C)=C\C=C\C(C)=C\C(=O)O)C(C)(C)CCC1` [9cisRA, 9-cis-retinoic acid], the “interaction of MOP4 and CLOCK with RXRα and RARα” value in assay [1] is listed as “ligand-dependent manner”.
Turning to `CC1=C(/C=C/C(C)=C/C=C/C(C)=C/C(=O)O)C(C)(C)CCC1` [tRA, all-trans retinoic acid], the “strength of the interaction between MOP4 and CLOCK with RARα” value in assay [2] is “increase the strength of the interaction”. In addition, the “interaction of MOP4 and CLOCK with RXRα and RARα” value in assay [1] is listed as “ligand-dependent manner”. In addition, the “association of CLOCK and RARα (coimmunoprecipitation)” value on CLOCK and RARα was “increase in association”. The hPER2 transcript oscillation entry is “delayed” in assay [3] (addition at T17, FIG. 5B); “altered” in assay [3] (addition at T17 and removal at T19, FIG. 5C). Further, the “phase delay of the hPER oscillation” value in assay [3] (tRA added at T17) is reported as “four”. Moreover, the “subsequent hPER2 levels” value in assay [3] (tRA added at T17 and left in culture, FIG. 5B) was “dropped and did not peak again”.

These data come from patent US7053121B2, “Compositions and methods for regulating circadian rhythms” (priority 2001, dated 2006).
